Where a SMILES comes first, the peptide text is derived from it.
Molecular target: T1, HIV-1 protease (Human immunodeficiency virus type 1 group M subtype B, UniProt P04585)
T1 construct: the enzyme HIV-1 protease; purchased BACHEM AMERICAS (King of Prussia, Pa.)
Assay: Kinetic parameter determination: hydrolysis of chromogenic substrate by HIV-1 PR monitored at 300 nm
Format: biochemical
Conditions: substrate hydrolysis by HIV-1 PR, 25° C., pH 4.9 assay buffer
Protocol: The synthetic chromogenic substrate, H-His-Lys-Ala-Arg-Val-Leu*Nph-Glu-Ala-Nle-Ser-NH2 (SEQ ID NO:3) and the enzyme HIV-1 protease (0.65 milligrams per milliliter (mg/mL), 16 International Units per milligram (IU/mg)) were purchased from BACHEM AMERICAS (King of Prussia, Pa.).
A stock solution containing 1 mg/mL of the chromogenic substrate in HIV PR assay buffer (50 millimolar (mM) sodium acetate, pH 4.9, 200 mM NaCl, 5 mM diothiothreitol (DTT), 10% (v/v) glycerol) was prepared by dissolving 5 mg chromogenic substrate in 5 mL of assay buffer. A substrate solution at a concentration of 101 micromolar (μM) was prepared in HIV-PR assay buffer from the substrate stock in a sample cup of Roche COBAS FARA. The stock mixture of HIV-1 PR as received was then diluted by 20-fold into this mixture. The hydrolysis of substrate by HIV-1 PR was monitored at 300 nm at 25° C. on a ROCHE DIAGNOSTICS COBAS FARA instrument.
A stock solution containing the chromogenic substrate at a concentration of 3 mg/mL was prepared by dissolving 5 mg chromogenic substrate in 1.67 mL of the assay buffer as described in Example 1. A series of substrate solutions were prepared in the HIV-PR assay buffer over the concentration range of 0-2282 μM. The stock solution of HIV-1 PR was then diluted by 20-fold into HIV PR assay buffer. The hydrolysis of substrate by HIV-1 PR was monitored at 300 nm at 25° C. on a ROCHE DIAGNOSTICS COBAS FARA instrument, as described in Example 1.

SMILES: CCCC[C@H](NC(=O)[C@H](C)NC(=O)[C@H](CCC(=O)O)NC(=O)[C@H](Cc1ccc([N+](=O)[O-])cc1)NC(=O)[C@H](CC(C)C)NC(=O)[C@@H](NC(=O)[C@H](CCCNC(=N)N)NC(=O)[C@H](C)NC(=O)[C@H](CCCCN)NC(=O)[C@@H](N)Cc1c[nH]cn1)C(C)C)C(=O)N[C@@H](CO)C(N)=O [chromogenic substrate, H-His-Lys-Ala-Arg-Val-Leu*Nph-Glu-Ala-Nle-Ser-NH2] (HELM PEPTIDE1{H.K.A.R.V.L.[O=C([C@H](Cc1ccc([N+](=O)[O-])cc1)N[*:1])[*:2]].E.A.[Nle].S.[am]}$$$$V2.0)
- apparent Vmax: 156.81 µmol/mg/min
- apparent kcat: 58.02 s⁻¹
- Km (substrate 0-2282 μM, read-out: apparent Km): 67 ± 7.55 µM

Reference: patent publication US20040014030A1, “Enzymatic assay of HIV protease inhibitors” (priority 2002, published 2004)
